# Source: patent publication US8246758B2, “Neutral or alkaline medium chain peroxycarboxylic acid compositions and methods employing them” (Ecolab USA Inc., priority 2004, dated 2012)
# Read-outs that look alike come from different tables or passages of the source.
# Columns and labels:
# Mycobacterium bovis BCG = type: cell-based
# [1] = system: spores of Clostridium sporogenes ATCC 3584; type: cell-based; conditions: pH 6.5, 10 hrs, Ambient
# [2] = system: Trichophyton mentagrophytes ATCC 9533; experiment: AOAC Fungicidal Activity of Disinfectants (955.17); type: cell-based; conditions: pH 6.5, 5 min, Ambient
# Experimental: Activity against fungus, Trichophyton mentagrophytes ATCC 9533, was evaluated using the Fungicidal Activity of Disinfectants using Trichophyton mentagrophytes, Official Methods of Analysis of the Association of Official Analytical Chemists, paragraph 955.17. Composition KK was adjusted to pH 6.5 in synthetic hard water (400 ppm hardness) and tested for activity in the presence of a 5% organic soil load. Antimicrobial efficacy was determined by exposing stainless steel penicyclinders containing dried Trichophyton mentagrophytes to 10 mL of the test substance at the desired concentration, temperature and for the desired contact time. After which each penicylinder was removed aseptically and transferred to a neutralizing subculture medium. A peroxyacetic acid composition was also tested by this procedure.
# [3] = system: Pseudomonas aeruginosa biofilm; experiment: Biofilm removal from stainless steel coupon
compound,measurement,setting,value
CC(=O)OO [Peroxyacetic Acid],concentration of peroxyacetic acid needed to be as effective,Mycobacterium bovis BCG,≥ 1250 ppm
same,# Negative Tubes/# Tubes Tested,[1]; 1000 ppm,59/60
same,# Negative Tubes/# Tubes Tested,[2]; 1000 ppm,10/10
CCCCCCCC(=O)OO [Peroxyoctanoic Acid],# Negative Tubes/# Tubes Tested,[1]; 400 ppm,60/60
same,# Negative Tubes/# Tubes Tested,[2]; 400 ppm,10/10
"[Na+].[OH-] [caustic, NaOH]",survivors on enrichment of treated coupons,[3]; caustic (3% of 50% NaOH) for 3 min at 160° F.,survivors on one of two coupons
same,"biofilm cleaning performance, ranking","[3]; total 6 min at 160° F., synthetic hard water 500 ppm, acridine orange fluorescence imaging",lastly
